Test results as given in US12459951B2, “Compounds that interact with RAS superfamily proteins for treatment of cancers, inflammatory diseases, rasopathies, and fibrotic disease” (SHY Therapeutics, LLC, priority 2022, dated 2025).

Columns and labels:
Erk1/2 phosphorylation = experiment: Erk1/2 Phosphorylation Assay (western blot), Panc-1; assay type: cell-based, human; conditions: at 10 μM, * = activation
How it was run: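 KRas G12D Panc-1 cells were treated 6 h at 37° C with compound at 10 μM or serial dilutions for IC50 (0.3% DMSO). In method 1, cells were serum-starved overnight (0.5% FBS) and then given 1.5 ng/ml EGF for 15 min. In method 2, cells stayed in 10% FBS without stimulation. Lysate phospho-Erk1/2 (Thr202/Tyr204) was read by western blot.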

[1] = system: Smad2/Smad3 phosphorylation; experiment: Phospho-Smad2/3 Inhibition Assay (western blot), Panc-1; assay type: cell-based, human; conditions: at 10 μM, Panc-1 pancreatic cancer cell line; starred symbols = activation
How it was run: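 Panc-1 cells (KRas G12D), starved overnight in 0.5% FBS, treated 3 h at 37° C with compound at 10 μM final (0.3% DMSO) or serial dilutions for IC50, then stimulated with 10 ng/ml TGF-b1 for 1 h. Phospho-Smad2 (Ser465/467) and phospho-Smad3 (Ser423/425) detected by western blot.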

SMILES | % inh of Erk1/2 phosphorylation in Panc-1 (Erk1/2 phosphorylation) | % inh of Smad2/3 phosphorylation in Panc-1 [1]
COc1cccc(-c2cn3nc(-c4nccn4C)nc(N[C@H]4C[C@H](OC)C4)c3c2-c2ccn(C)n2)c1F [Compound 47, 6-(2-Fluoro-3-methoxyphenyl)-N-((1r,3r)-3-methoxycyclobutyl)-2-(1-methyl-1H-imidazol-2-yl)-5-(1-methyl-1H-pyrazol-3-yl)pyrrolo[2,1-f][1,2,4]triazin-4-amine] | C (50-84% inhibition) | D (D = 76-100% inhibition)
COc1cc(Nc2nc(-c3nccn3C)nn3cc(-c4cccnc4)c(C)c23)ncn1 [Compound 48, N-(6-Methoxypyrimidin-4-yl)-5-methyl-2-(1-methyl-1H-imidazol-2-yl)-6-(pyridin-3-yl)pyrrolo[2,1-f][1,2,4]triazin-4-amine] | A (1-25% inhibition) | B (B = 26-45% inhibition)
COc1cc(Nc2nc(-c3nccn3C)nn3cc(-c4ccncc4)c(C)c23)ncn1 [Compound 49, N-(6-Methoxypyrimidin-4-yl)-5-methyl-2-(1-methyl-1H-imidazol-2-yl)-6-(pyridin-4-yl)pyrrolo[2,1-f][1,2,4]triazin-4-amine] | B* (26-49% activation) | B (B = 26-45% inhibition)
COc1cc(-c2cn3nc(-c4nccn4C)nc(Nc4cc(OC)ncn4)c3c2C)ccn1 [Compound 50, 6-(2-Methoxypyridin-4-yl)-N-(6-methoxypyrimidin-4-yl)-5-methyl-2-(1-methyl-1H-imidazol-2-yl)pyrrolo[2,1-f][1,2,4]triazin-4-amine] | B* (26-49% activation) | B (B = 26-45% inhibition)
COc1cc(Nc2nc(-c3nccn3C)nn3cc(-c4ccn(C(C)C)n4)c(C)c23)n[nH]1 [Compound 51, 6-(1-Isopropyl-1H-pyrazol-3-yl)-N-(5-methoxy-1H-pyrazol-3-yl)-5-methyl-2-(1-methyl-1H-imidazol-2-yl)pyrrolo[2,1-f][1,2,4]triazin-4-amine] | 0 (0% inhibition) | D (D = 76-100% inhibition)
Cc1c(-c2ccn(C(C)C)n2)cn2nc(-c3nccn3C)nc(Nc3ccncc3)c12 [Compound 52, 6-(1-Isopropyl-1H-pyrazol-3-yl)-5-methyl-2-(1-methyl-1H-imidazol-2-yl)-N-(pyridin-4-yl)pyrrolo[2,1-f][1,2,4]triazin-4-amine] | 0 (0% inhibition) | D (D = 76-100% inhibition)
COc1ccnc(Nc2nc(-c3nccn3C)nn3cc(-c4ccn(C(C)C)n4)c(C)c23)n1 [Compound 53, 6-(1-Isopropyl-1H-pyrazol-3-yl)-N-(4-methoxypyrimidin-2-yl)-5-methyl-2-(1-methyl-1H-imidazol-2-yl)pyrrolo[2,1-f][1,2,4]triazin-4-amine] | D (85-100% inhibition) | B (B = 26-45% inhibition)
Cc1c(-c2ccn(C(C)C)n2)cn2nc(-c3nccn3C)nc(Nc3ncccn3)c12 [Compound 54, 6-(1-Isopropyl-1H-pyrazol-3-yl)-5-methyl-2-(1-methyl-1H-imidazol-2-yl)-N-(pyrimidin-2-yl)pyrrolo[2,1-f][1,2,4]triazin-4-amine] | C (50-84% inhibition) | A (A = 1-25% inhibition)
Cc1c(-c2ccn(C(C)C)n2)cn2nc(-c3nccn3C)nc(Nc3ccncn3)c12 [Compound 55, 6-(1-Isopropyl-1H-pyrazol-3-yl)-5-methyl-2-(1-methyl-1H-imidazol-2-yl)-N-(pyrimidin-4-yl)pyrrolo[2,1-f][1,2,4]triazin-4-amine] | A (1-25% inhibition) | D (D = 76-100% inhibition)
COc1cnc(Nc2nc(-c3nccn3C)nn3cc(-c4ccn(C(C)C)n4)c(C)c23)nc1 [Compound 56, 6-(1-Isopropyl-1H-pyrazol-3-yl)-N-(5-methoxypyrimidin-2-yl)-5-methyl-2-(1-methyl-1H-imidazol-2-yl)pyrrolo[2,1-f][1,2,4]triazin-4-amine] | C (50-84% inhibition) | D* (D* = 76-100% activation)
Cc1c(-c2ccn(C(C)C)n2)cn2nc(-c3nccn3C)nc(Nc3ccccn3)c12 [Compound 57, 6-(1-Isopropyl-1H-pyrazol-3-yl)-5-methyl-2-(1-methyl-1H-imidazol-2-yl)-N-(pyridin-2-yl)pyrrolo[2,1-f][1,2,4]triazin-4-amine] | A* (1-25% activation) | A* (A* = 1-25% activation)
COc1ccnc(Nc2nc(-c3nccn3C)nn3cc(-c4ccn(C(C)C)n4)c(C)c23)c1 [Compound 58, 6-(1-Isopropyl-1H-pyrazol-3-yl)-N-(4-methoxypyridin-2-yl)-5-methyl-2-(1-methyl-1H-imidazol-2-yl)pyrrolo[2,1-f][1,2,4]triazin-4-amine] | D (85-100% inhibition) | C (C = 46-75% inhibition)
Cc1c(-c2ccn(C(C)C)n2)cn2nc(-c3nccn3C)nc(Nc3nnco3)c12 [Compound 59, N-(6-(1-Isopropyl-1H-pyrazol-3-yl)-5-methyl-2-(1-methyl-1H-imidazol-2-yl)pyrrolo[2,1-f][1,2,4]triazin-4-yl)-1,3,4-oxadiazol-2-amine] | C (50-84% inhibition) | D (D = 76-100% inhibition)
Cc1c(-c2ccn(C(C)C)n2)cn2nc(-c3nccn3C)nc(Nc3ncco3)c12 [Compound 60, N-(6-(1-Isopropyl-1H-pyrazol-3-yl)-5-methyl-2-(1-methyl-1H-imidazol-2-yl)pyrrolo[2,1-f][1,2,4]triazin-4-yl)oxazol-2-amine] | A (1-25% inhibition) | C (C = 46-75% inhibition)
Cc1c(-c2ccn(C(C)C)n2)cn2nc(-c3nccn3C)nc(Nc3ccn(C)n3)c12 [Compound 61, 6-(1-Isopropyl-1H-pyrazol-3-yl)-5-methyl-2-(1-methyl-1H-imidazol-2-yl)-N-(1-methyl-1H-pyrazol-3-yl)pyrrolo[2,1-f][1,2,4]triazin-4-amine] | A* (1-25% activation) | B (B = 26-45% inhibition)
Cc1c(-c2ccn(C(C)C)n2)cn2nc(-c3nccn3C)nc(Nc3cnccn3)c12 [Compound 62, 6-(1-Isopropyl-1H-pyrazol-3-yl)-5-methyl-2-(1-methyl-1H-imidazol-2-yl)-N-(pyrazin-2-yl)pyrrolo[2,1-f][1,2,4]triazin-4-amine] | A (1-25% inhibition) | A* (A* = 1-25% activation)
COc1cc(Nc2nc(-c3nccn3C)nn3cc(-c4ccn(C)n4)c(C)c23)ncn1 [Compound 63, N-(6-Methoxypyrimidin-4-yl)-5-methyl-2-(1-methyl-1H-imidazol-2-yl)-6-(1-methyl-1H-pyrazol-3-yl)pyrrolo[2,1-f][1,2,4]triazin-4-amine] | A (1-25% inhibition) | D* (D* = 76-100% activation)
CCn1ccc(-c2cn3nc(-c4nccn4C)nc(Nc4cc(OC)ncn4)c3c2C)n1 [Compound 64, 6-(1-Ethyl-1H-pyrazol-3-yl)-N-(6-methoxypyrimidin-4-yl)-5-methyl-2-(1-methyl-1H-imidazol-2-yl)pyrrolo[2,1-f][1,2,4]triazin-4-amine] | A (1-25% inhibition) | A (A = 1-25% inhibition)
COc1cc(Nc2nc(-c3nccn3C)nn3cc(-c4cccc(OC)n4)c(C)c23)ncn1 [Compound 65, 6-(6-Methoxypyridin-2-yl)-N-(6-methoxypyrimidin-4-yl)-5-methyl-2-(1-methyl-1H-imidazol-2-yl)pyrrolo[2,1-f][1,2,4]triazin-4-amine] | A (1-25% inhibition) | A* (A* = 1-25% activation)
COc1ccc(-c2cn3nc(-c4nccn4C)nc(Nc4cc(OC)ncn4)c3c2C)cn1 [Compound 66, 6-(6-Methoxypyridin-3-yl)-N-(6-methoxypyrimidin-4-yl)-5-methyl-2-(1-methyl-1H-imidazol-2-yl)pyrrolo[2,1-f][1,2,4]triazin-4-amine] | C (50-84% inhibition) | A* (A* = 1-25% activation)
Cc1c(-c2ccn(C(C)C)n2)cn2nc(-c3nccn3C)nc(Nc3nnc(C4CC4)o3)c12 [Compound 67, 5-Cyclopropyl-N-(6-(1-isopropyl-1H-pyrazol-3-yl)-5-methyl-2-(1-methyl-1H-imidazol-2-yl)pyrrolo[2,1-f][1,2,4]triazin-4-yl)-1,3,4-oxadiazol-2-amine] | D (85-100% inhibition) | 0 (0 = 0% inhibition)
Cc1c(-c2ccn(C(C)C)n2)cn2nc(-c3nccn3C)nc(Nc3cc(C4CC4)n[nH]3)c12 [Compound 68, N-(3-Cyclopropyl-1H-pyrazol-5-yl)-6-(1-isopropyl-1H-pyrazol-3-yl)-5-methyl-2-(1-methyl-1H-imidazol-2-yl)pyrrolo[2,1-f][1,2,4]triazin-4-amine] | D* (85-100% activation) | A* (A* = 1-25% activation)
